Earlier results, collected in patent US10238626B2, “Therapeutic compounds” (ARIZONA BOARD OF REGENTS ON BEHALF OF ARIZONA STATE …, priority 2017, dated 2019).

Columns and labels:
[1] = biological target: hRXRβ (Homo sapiens, UniProt P28702); conditions: read-out: EC50 for the hRXRβ isoform; literature (Santin et al. 2009)
[2] = biological target: hRXR; conditions: Caco-2 cells; literature (Wagner et al. 2009)
[3] = system: hRXR; conditions: Caco-2 cells; literature (Wagner et al. 2009); remark: listed apart in the source

Sequence of hRXRβ (P28702 whole entry, canonical isoform): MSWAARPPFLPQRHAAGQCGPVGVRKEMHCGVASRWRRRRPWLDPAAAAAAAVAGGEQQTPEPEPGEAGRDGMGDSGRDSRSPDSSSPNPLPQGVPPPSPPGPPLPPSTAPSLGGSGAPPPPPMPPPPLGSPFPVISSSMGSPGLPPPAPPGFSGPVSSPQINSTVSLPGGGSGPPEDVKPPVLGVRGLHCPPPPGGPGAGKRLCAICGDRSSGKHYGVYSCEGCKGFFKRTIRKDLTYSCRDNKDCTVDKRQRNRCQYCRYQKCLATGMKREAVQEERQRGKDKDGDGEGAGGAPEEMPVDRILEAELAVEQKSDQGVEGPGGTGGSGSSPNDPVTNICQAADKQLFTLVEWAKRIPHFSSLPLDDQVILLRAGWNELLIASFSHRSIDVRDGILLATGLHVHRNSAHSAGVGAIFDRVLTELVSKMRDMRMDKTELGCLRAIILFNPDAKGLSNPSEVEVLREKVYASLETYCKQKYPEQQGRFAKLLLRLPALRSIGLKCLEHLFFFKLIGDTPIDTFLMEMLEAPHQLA

SMILES | EC50 [1] | Kd [2] | EC50 [3]
Cc1cc2c(cc1-c1cc(/C=C/C(=O)O)ccc1O)C(C)(C)CCC2(C)C [CD3254] | ~0.01 µM | – | –
C=C(c1ccc(C(=O)O)c(F)c1)c1cc2c(cc1C)C(C)(C)CCC2(C)C [compound 3] | – | 0.012 µM | 0.043 µM
